Drawing on patent US9783536B2, “Nitrogen-containing heterocyclic compound or salt thereof” (FUJIFILM Corporation, priority 2013, dated 2017), this text covers IC50 for 39 molecules.

Where only a bound is given, the exact number is not on record here.

One test addresses T1, human PI3Kα protein (Homo sapiens, UniProt P42336).
T1 construct: purchased Carna Biosciences, Inc; host or cells: baculovirus expression system
In words: PI3Kα enzyme assay (ADP-Glo). Type of test: biochemical. The settings on record: read-out: PI3Kα enzyme inhibitory activity. The gist of the method: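 Biotinylated human PI3Kα (baculovirus-expressed, 4.5 nmol/L) pre-incubated 15 min with compound in Tris-HCl pH 7.5, MgCl2, BSA; reaction 60 min at 25° C with 50 μmol/L PIP2 and 100 μmol/L ATP final. ADP quantified by ADP-Glo luminescence; IC50 calculated.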
(ADP-Glo turns the ADP formed in a reaction into a luminescent signal.)

Test [1] addresses T2, GST fusion human ERK2 protein (Homo sapiens, UniProt P28482).
T2 construct: purchased Carna Biosciences, Inc; host or cells: E. coli expression system
Nature of the test: ERK2 enzyme assay (2). The class given is biochemical. Conditions: ERK2 enzyme assay (2); read-out: ERK2 enzyme inhibitory activity (2). The method, boiled down:
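IC50 values come from mobility-shift measurement of phosphorylated versus unphosphorylated 5-FAM peptide substrate after EDTA quench. Beforehand, compound and 1.25 nmol/L E. coli-expressed GST–human ERK2 stood 15 min at room temperature (pH 7.5), then 1 mmol/L ATP and 4.25 μmol/L substrate (final) were added for 120 min at 25 °C.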

T1 sequence (P42336 whole entry): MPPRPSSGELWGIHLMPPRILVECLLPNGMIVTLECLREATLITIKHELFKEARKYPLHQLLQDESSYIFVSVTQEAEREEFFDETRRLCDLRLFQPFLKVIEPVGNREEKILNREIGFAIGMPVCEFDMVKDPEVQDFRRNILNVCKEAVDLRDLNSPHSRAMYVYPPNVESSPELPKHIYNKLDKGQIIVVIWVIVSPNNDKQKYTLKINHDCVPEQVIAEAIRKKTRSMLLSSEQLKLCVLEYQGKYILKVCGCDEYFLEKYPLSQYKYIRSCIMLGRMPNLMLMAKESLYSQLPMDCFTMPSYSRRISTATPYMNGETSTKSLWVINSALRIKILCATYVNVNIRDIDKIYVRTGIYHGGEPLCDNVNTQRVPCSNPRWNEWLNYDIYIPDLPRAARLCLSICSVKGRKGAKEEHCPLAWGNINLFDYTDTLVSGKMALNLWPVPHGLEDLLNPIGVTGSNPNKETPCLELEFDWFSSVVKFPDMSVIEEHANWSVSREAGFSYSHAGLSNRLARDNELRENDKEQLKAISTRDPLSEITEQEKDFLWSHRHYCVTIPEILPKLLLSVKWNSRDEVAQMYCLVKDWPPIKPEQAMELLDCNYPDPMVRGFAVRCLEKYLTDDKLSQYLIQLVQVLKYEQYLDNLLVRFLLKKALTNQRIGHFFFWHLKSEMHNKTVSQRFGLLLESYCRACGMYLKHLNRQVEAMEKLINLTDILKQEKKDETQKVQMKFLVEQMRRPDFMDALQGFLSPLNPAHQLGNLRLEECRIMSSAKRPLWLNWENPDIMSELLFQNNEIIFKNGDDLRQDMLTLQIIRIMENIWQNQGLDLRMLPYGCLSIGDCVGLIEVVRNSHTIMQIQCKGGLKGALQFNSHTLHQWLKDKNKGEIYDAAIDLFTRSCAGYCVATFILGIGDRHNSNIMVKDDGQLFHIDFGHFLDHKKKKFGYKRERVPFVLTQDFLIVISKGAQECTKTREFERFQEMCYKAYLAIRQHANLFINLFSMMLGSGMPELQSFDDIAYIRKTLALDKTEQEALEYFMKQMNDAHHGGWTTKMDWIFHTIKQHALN
T1 sequence (P27986 whole entry partner): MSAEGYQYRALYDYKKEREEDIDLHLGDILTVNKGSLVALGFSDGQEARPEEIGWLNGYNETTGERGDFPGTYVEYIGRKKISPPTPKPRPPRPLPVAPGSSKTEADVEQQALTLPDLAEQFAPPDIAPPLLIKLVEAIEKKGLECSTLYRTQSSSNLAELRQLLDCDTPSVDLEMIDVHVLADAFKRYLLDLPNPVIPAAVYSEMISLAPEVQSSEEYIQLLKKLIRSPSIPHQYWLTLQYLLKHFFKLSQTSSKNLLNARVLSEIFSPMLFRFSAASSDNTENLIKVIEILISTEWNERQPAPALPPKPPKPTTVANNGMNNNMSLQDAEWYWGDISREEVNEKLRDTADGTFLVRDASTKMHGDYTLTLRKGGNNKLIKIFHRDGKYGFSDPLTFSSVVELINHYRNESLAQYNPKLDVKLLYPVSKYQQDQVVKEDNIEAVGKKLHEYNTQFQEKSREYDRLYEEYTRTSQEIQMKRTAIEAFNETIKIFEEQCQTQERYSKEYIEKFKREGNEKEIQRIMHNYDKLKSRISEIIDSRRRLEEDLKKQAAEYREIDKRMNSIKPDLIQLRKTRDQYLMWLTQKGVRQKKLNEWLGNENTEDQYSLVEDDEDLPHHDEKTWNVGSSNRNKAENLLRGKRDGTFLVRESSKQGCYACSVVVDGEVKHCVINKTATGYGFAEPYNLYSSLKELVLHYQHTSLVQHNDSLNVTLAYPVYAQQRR
T2 sequence (P28482 whole entry, the tested form may be a part): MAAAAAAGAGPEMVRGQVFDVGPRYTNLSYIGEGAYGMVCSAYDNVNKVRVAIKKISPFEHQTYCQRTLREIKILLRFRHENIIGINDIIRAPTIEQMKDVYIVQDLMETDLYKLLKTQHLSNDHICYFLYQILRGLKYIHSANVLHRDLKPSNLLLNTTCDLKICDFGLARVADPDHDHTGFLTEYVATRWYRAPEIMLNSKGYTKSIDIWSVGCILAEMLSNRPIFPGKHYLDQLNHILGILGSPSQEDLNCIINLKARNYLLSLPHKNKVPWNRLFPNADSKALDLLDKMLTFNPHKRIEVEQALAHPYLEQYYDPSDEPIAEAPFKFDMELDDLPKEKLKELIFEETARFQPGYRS

With `CCC(CC)c1cnnc(Nc2ccc3ncc(-c4cn(C)nc4-c4ccncc4)cc3n2)c1` [Example 0770], the IC50 (at human PI3Kα protein; in test [1]) was below 1000 nM each time.
Turning to `CCn1cc(-c2cnc3ccc(Nc4cc(C(C)C)cnn4)nc3c2)c(-c2ccncc2)n1` [Example 0771], the IC50 (on human PI3Kα protein; in test [1]) was below 1000 nM each time.
Consider `CC(C)c1cnnc(Nc2ccc3ncc(-c4cn(C)nc4C4CCOCC4)cc3n2)c1` [Example 0772], for which the IC50 (on human PI3Kα protein; in test [1]) was below 1000 nM in each case.
Turning to `CC(C)c1cnnc(Nc2ccc3ncc(-c4cn(C)nc4-c4ccc(OCCN(C)C)cc4)cc3n2)c1` [Example 0774], the IC50 (on human PI3Kα protein; in test [1]) was below 1000 nM throughout.
For `CC(C)c1cnnc(Nc2ccc3ncc(-c4cn(C)nc4-c4ccc(OCC(=O)N(C)C)cc4)cc3n2)c1` [Example 0777, 2-(4-(4-(6-((5-Isopropylpyridazin-3-yl)amino)-1,5-naphthyridin-3-yl)-1-methyl-1H-pyrazol-3-yl)phenoxy)-N,N-dimethylacetamide], the IC50 (on human PI3Kα protein; in test [1]) was below 1000 nM each time.
Take `CC(C)c1cnnc(Nc2ccc3ncc(-c4cn(C)nc4-c4ccc(OCCN5CCCCC5)cc4)cc3n2)c1` [Example 0778]: the IC50 (at human PI3Kα protein; in test [1]) was below 1000 nM in each case.
Regarding `CC(C)c1cnnc(Nc2ccc3ncc(-c4cn(C)nc4C4CN(C(=O)OC(C)(C)C)C4)cc3n2)c1` [Example 0779, tert-butyl 3-(4-(6-((5-isopropylpyridazin-3-yl)amino)-1,5-naphthyridin-3-yl)-1-methyl-1H-pyrazol-3-yl)azetidine-1-carboxylate], the IC50 (at human PI3Kα protein; in test [1]) was below 1000 nM in each case.
For `CC(C)c1cnnc(Nc2ccc3ncc(-c4cn(C)nc4C4CNC4)cc3n2)c1` [Example 0780, 7-(3-(azetidin-3-yl)-1-methyl-1H-pyrazol-4-yl)-N-(5-isopropylpyridazin-3-yl)-1,5-naphthyridine-2-amine], the IC50 (at human PI3Kα protein; in test [1]) was below 1000 nM in each case.
Regarding `Cn1cc(-c2cnc3ccc(Nc4cc(C(C)(C)O)cnn4)nc3c2)c(-c2ccncc2)n1` [Example 0782], the IC50 (at human PI3Kα protein; in test [1]) was below 1000 nM in each case.
As to `CC(C)(O)c1cnnc(Nc2ccc3ncc(-c4cnn(CC5CCOCC5)c4)cc3n2)c1` [Example 0783], the IC50 (on human PI3Kα protein; in test [1]) was below 1000 nM in each case.
Take `COCCn1cc(-c2nn(C)cc2-c2cnc3ccc(Nc4cc(C(C)C)cnn4)nc3c2)cn1` [Example 0784]: the IC50 (on human PI3Kα protein; in test [1]) was below 1000 nM in each case.
In the case of `C=C(C)c1cnnc(Nc2ccc3ncc(-c4cn(C)nc4C)cc3n2)c1` [Example 0785], the IC50 (on human PI3Kα protein; in test [1]) was below 1000 nM throughout.
Regarding `COCC(C)c1cnnc(Nc2ccc3ncc(-c4cn(C)nc4C)cc3n2)c1` (stereo not drawn) [Example 0786, 7-(1,3-dimethyl-1H-pyrazol-4-yl)-N-(5-(1-methoxypropan-2-yl)pyridazin-3-yl)-1,5-naphthyridine-2-amine], the IC50 (on human PI3Kα protein; in test [1]) was below 1000 nM throughout.
Regarding `C=C(C)c1cnnc(Nc2ccc3ncc(-c4cnn(C)c4)cc3n2)c1` [Example 0787, 7-(1-Methyl-1H-pyrazol-4-yl)-N-(5-(prop-1-en-2-yl)pyridazin-3-yl)-1,5-naphthyridine-2-amine], the IC50 (on human PI3Kα protein; in test [1]) was below 1000 nM in each case.
`COCC(C)c1cnnc(Nc2ccc3ncc(-c4cnn(C)c4)cc3n2)c1` (stereo not drawn) [Example 0788, N-(5-(1-methoxypropan-2-yl)pyridazin-3-yl)-7-(1-methyl-1H-pyrazol-4-yl)-1,5-naphthyridine-2-amine]: the IC50 (at human PI3Kα protein; in test [1]) was below 1000 nM each time.
On to `Cc1nn(C)cc1-c1cnc2ccc(Nc3cc(CC4CCCCC4)cnn3)nc2c1` [Example 0789], for which the IC50 (at human PI3Kα protein; in test [1]) was below 1000 nM throughout.
For the molecule `Cc1nn(C)cc1-c1cnc2ccc(Nc3cc(CC(C)C)cnn3)nc2c1` [Example 0790], the IC50 (at human PI3Kα protein; in test [1]) was below 1000 nM in each case.
Regarding `Cc1nn(C)cc1-c1cnc2ccc(Nc3cc(C4CCC4)cnn3)nc2c1` [Example 0791], the IC50 (at human PI3Kα protein; in test [1]) was below 1000 nM in each case.
For the molecule `COC(=O)c1ccc(Cn2cc(-c3cnc4ccc(Nc5cc(C(C)C)cnn5)nc4c3)cn2)cc1` [Example 0792], the IC50 (on human PI3Kα protein; in test [1]) was below 1000 nM in each case.
For `CC(C)c1cnnc(Nc2ccc3ncc(-c4cn(C)nc4-c4ccc(N(C)C)nc4)cc3n2)c1` [Example 0793], the IC50 at human PI3Kα protein was below 1000 nM; in test [1] it was 1000 to 10000 nM.
Regarding `COC1(C)CN(CCCn2cc(-c3cnc4ccc(Nc5cc(C(C)C)cnn5)nc4c3)cn2)C1` [Example 0794, N-(5-isopropylpyridazin-3-yl)-7-(1-(3-(3-methoxy-3-methylazetidin-1-yl)propyl)-1H-pyrazol-4-yl)-1,5-naphthyridine-2-amine], the IC50 (at human PI3Kα protein; in test [1]) was below 1000 nM in each case.
As to `COC1CN(CCCn2cc(-c3cnc4ccc(Nc5cc(C(C)C)cnn5)nc4c3)c(C)n2)C1` [Example 0796, N-(5-isopropylpyridazin-3-yl)-7-(1-(3-(3-methoxyazetidin-1-yl)propyl)-3-methyl-1H-pyrazol-4-yl)-1,5-naphthyridine-2-amine], the IC50 (at human PI3Kα protein; in test [1]) was below 1000 nM each time.
Turning to `COC1(C)CN(CCCn2cc(-c3cnc4ccc(Nc5cc(C(C)C)cnn5)nc4c3)c(C)n2)C1` [Example 0797], the IC50 (on human PI3Kα protein; in test [1]) was below 1000 nM each time.
For the molecule `CC(C)c1cnnc(Nc2ccc3ncc(-c4cn(C)nc4Nc4ccncc4)cc3n2)c1` [Example 0798], the IC50 (on human PI3Kα protein; in test [1]) was below 1000 nM in each case.
For the molecule `CC(C)c1cnnc(Nc2ccc3ncc(-c4cn(C)nc4COc4cccnc4)cc3n2)c1` [Example 0799, N-(5-isopropylpyridazin-3-yl)-7-(1-methyl-3-((pyridin-3-yloxy)methyl)-1H-pyrazol-4-yl)-1,5-naphthyridine-2-amine], the IC50 (on human PI3Kα protein; in test [1]) was below 1000 nM throughout.
Regarding `Cc1nn(CCCO)cc1-c1cnc2ccc(Nc3cc(C(C)C)cnn3)nc2c1` [Example 0800, 3-(4-(6-((5-Isopropylpyridazin-3-yl)amino)-1,5-naphthyridin-3-yl)-3-methyl-1H-pyrazol-1-yl)propan-1-ol], the IC50 (at human PI3Kα protein; in test [1]) was below 1000 nM in each case.
As to `CC(C)c1cnnc(Nc2ccc3ncc(-c4cn(C)nc4N(C)c4cccnc4)cc3n2)c1` [Example 0802], the IC50 (on human PI3Kα protein; in test [1]) was below 1000 nM each time.
Regarding `CC(C)c1cnnc(Nc2ccc3ncc(-c4cn(C)nc4COc4ccccc4)cc3n2)c1` [Example 0803], the IC50 (on human PI3Kα protein; in test [1]) was below 1000 nM each time.
With `COc1cccc(OCc2nn(C)cc2-c2cnc3ccc(Nc4cc(C(C)C)cnn4)nc3c2)c1` [Example 0805], the IC50 (at human PI3Kα protein; in test [1]) was below 1000 nM throughout.
`COc1ccc(OCc2nn(C)cc2-c2cnc3ccc(Nc4cc(C(C)C)cnn4)nc3c2)cc1` [Example 0806]: the IC50 (on human PI3Kα protein; in test [1]) was below 1000 nM in each case.
On to `CC(C)c1cnnc(Nc2ccc3ncc(-c4cn(C)nc4/C=C/c4cccnc4)cc3n2)c1` [Example 0807], for which the IC50 (at human PI3Kα protein; in test [1]) was below 1000 nM in each case.
`CC(C)c1cnnc(Nc2ccc3ncc(-c4cn(C)nc4CN(C)c4cccnc4)cc3n2)c1` [Example 0808]: the IC50 was 1000 to 10000 nM on human PI3Kα protein and below 1000 nM in test [1].
On the same counts, the results for `CC(C)c1cnnc(Nc2ccc3ncc(-c4cn(C)nc4COc4cccc(OCCN(C)C)c4)cc3n2)c1` [Example 0809, 7-(3-((3-(2-(dimethylamino)ethoxy)phenoxy)methyl)-1-methyl-1H-pyrazol-4-yl)-N-(5-isopropylpyridazin-3-yl)-1,5-naphthyridine-2-amine] are below 1000 nM and below 1000 nM.
On the same counts, the results for `CC(C)c1cnnc(Nc2ccc3ncc(-c4cn(C)nc4COc4cccc(OCC(=O)N(C)C)c4)cc3n2)c1` [Example 0810] are below 1000 nM and below 1000 nM.
`CCOC(CN1CCOCC1)Cn1cc(-c2cnc3ccc(Nc4cc(C(C)C)cnn4)nc3c2)cn1` (stereo not drawn) [Example 0811]: the IC50 (at human PI3Kα protein; in test [1]) was below 1000 nM in each case.
As for `COC(CN1CC(OC(F)F)C1)Cn1cc(-c2cnc3ccc(Nc4cc(C(C)C)cnn4)nc3c2)cn1` (stereo not drawn) [Example 0813, 7-(1-(3-(3-(Difluoromethoxy)azetidin-1-yl)-2-methoxypropyl)-1H-pyrazol-4-yl)-N-(5-isopropylpyridazin-3-yl)-1,5-naphthyridine-2-amine], the IC50 (at human PI3Kα protein; in test [1]) was below 1000 nM in each case.
For the molecule `COC(CN1CC(F)(F)C1)Cn1cc(-c2cnc3ccc(Nc4cc(C(C)C)cnn4)nc3c2)cn1` (stereo not drawn) [Example 0814, 7-(1-(3-(3,3-difluoroazetidin-1-yl)-2-methoxypropyl)-1H-pyrazol-4-yl)-N-(5-isopropylpyridazin-3-yl)-1,5-naphthyridine-2-amine], the IC50 (at human PI3Kα protein; in test [1]) was below 1000 nM each time.
As for `COC(CN1CC(F)C1)Cn1cc(-c2cnc3ccc(Nc4cc(C(C)C)cnn4)nc3c2)cn1` (stereo not drawn) [Example 0815, 7-(1-(3-(3-Fluoroazetidin-1-yl)-2-methoxypropyl)-1H-pyrazol-4-yl)-N-(5-isopropylpyridazin-3-yl)-1,5-naphthyridine-2-amine], the IC50 (on human PI3Kα protein; in test [1]) was below 1000 nM throughout.
`CCC(CC)c1cnnc(Nc2ccc3ncc(-c4cnn(CCOC5CNC5)c4)cc3n2)c1` [Example 0816]: the IC50 (on human PI3Kα protein; in test [1]) was below 1000 nM each time.
